In brackets after ≈: the same amount, converted by molar mass.
What follows are molecules tested on S aureus A798 (assay: Minimal inhibitory concentration (MIC), microdilution method in cation-adjusted Mueller-Hinton Broth following NCCLS guidelines). Settings: pH of test medium 7.2-7.3.
Format: cell-based
Method in brief: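 MICs (mg/l) came from NCCLS-guided microdilution, using cation-adjusted Mueller-Hinton medium adjusted to pH 7.2-7.3.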

Structure (SMILES)	MIC [µg/mL]
COc1ccc2nccc(N3CC(N(C)C[C@@H]4CN(c5ccc6c(c5)NC(=O)CS6)C(=O)O4)C3)c2n1 [Example 56, 6-[(R)-5-({[1-(6-Methoxy-[1,5]naphthyridin-4-yl)-azetidin-3-yl]-methyl-amino}-methyl)-2-oxo-oxazolidin-3-yl]-4H-benzo[1,4]thiazin-3-one]	≤ 0.031
COc1ccc2nccc(N3CCC(NC[C@@H]4CN(c5ccc(OC(F)F)cc5)C(=O)O4)CC3)c2n1 [Example 185, (R)-3-(4-Difluoromethoxy-phenyl)-5-{[1-(6-methoxy-[1,5]naphthyridin-4-yl)-piperidin-4-ylamino]-methyl}-oxazolidin-2-one]	0.5 (≈ 1 µM)
COc1ccc2nccc(N3CCN(CC4CN(c5ccc6ccc(=O)[nH]c6c5)C(=O)O4)CC3)c2n1 (racemic) [Example 111, (RS)-7-{5-[4-(6-Methoxy-[1,5]naphthyridin-4-yl)-piperazin-1-ylmethyl]-2-oxo-oxazolidin-3-yl}-1H-quinolin-2-one]	0.125 (≈ 0.257 µM)
COc1ccc2nccc(N3CC(N(C)C[C@@H]4CN(c5ccc(F)c(Cl)c5)C(=O)O4)C3)c2n1 [Example 136, (R)-3-(3-Chloro-4-fluoro-phenyl)-5-({[1-(6-methoxy-[1,5]naphthyridin-4-yl)-azetidin-3-yl]-methyl-amino}-methyl)-oxazolidin-2-one]	0.25 (≈ 0.53 µM)
COc1ccc2nccc(N3CCC(NC[C@@H]4CN(c5ccc6c(c5)NC(=O)CO6)C(=O)O4)CC3)c2n1 [Example 120, 6-((R)-5-{[1-(6-Methoxy-[1,5]naphthyridin-4-yl)-piperidin-4-ylamino]-methyl}-2-oxo-oxazolidin-3-yl)-4H-benzo[1,4]oxazin-3-one]	≤ 0.031
COc1ccc2nccc(N3CC(NC[C@@H]4CN(c5ccc6c(c5)OCCO6)C(=O)O4)C3)c2n1 [Example 51, (R)-3-(2,3-Dihydro-benzo[1,4]dioxin-6-yl)-5-{[1-(6-methoxy-[1,5]naphthyridin-4-yl)-azetidin-3-ylamino]-methyl}-oxazolidin-2-one]	≤ 0.031
COc1ccc2nccc(N3CC(NC[C@@H]4CN(c5ccc6c(c5)NC(=O)CO6)C(=O)O4)C3)c2c1 [Example 156, 6-((R)-5-{[1-(6-Methoxy-quinolin-4-yl)-azetidin-3-ylamino]-methyl}-2-oxo-oxazolidin-3-yl)-4H-benzo[1,4]oxazin-3-one]	≤ 0.031
COc1ccc2nccc(N3CC[C@@H](NC[C@@H]4CN(c5ccc(C)c(F)c5)C(=O)O4)C3)c2n1 [Example 68, (R)-3-(3-Fluoro-4-methyl-phenyl)-5-{[(R)-1-(6-methoxy-[1,5]naphthyridin-4-yl)-pyrrolidin-3-ylamino]-methyl}-oxazolidin-2-one]	0.063 (≈ 0.14 µM)
COc1ccc2nccc(N3CCC(C(=O)NC[C@@H]4CN(c5ccc(C)c(F)c5)C(=O)O4)C3)c2n1 (mixture of isomers) [Example 84, (RS)-1-(6-Methoxy-[1,5]naphthyridin-4-yl)-pyrrolidine-3-carboxylic acid [(R)-3-(3-fluoro-4-methyl-phenyl)-2-oxo-oxazolidin-5-ylmethyl]-amide]	≤ 0.031
COc1ccc(N2C[C@@H](CNC3CCN(c4ccnc5ccc(OC)nc45)CC3)OC2=O)cc1 [Example 183, (R)-5-{[1-(6-Methoxy-[1,5]naphthyridin-4-yl)-piperidin-4-ylamino]-methyl}-3-(4-methoxy-phenyl)-oxazolidin-2-one]	0.25 (≈ 0.539 µM)
COc1ccc2ncc(F)c(N3CCN(C[C@@H]4CN(c5ccc6c(c5)NC(=O)CO6)C(=O)O4)CC3)c2n1 [Example 97, 6-{(R)-5-[4-(3-Fluoro-6-methoxy-[1,5]naphthyridin-4-yl)-piperazin-1-ylmethyl]-2-oxo-oxazolidin-3-yl}-4H-benzo[1,4]oxazin-3-one]	≤ 0.031
COc1ccc2nccc(N3CC(NC[C@@H]4CN(c5ccc6c(c5)NC(=O)CS6)C(=O)O4)C3)c2n1 [Example 53, 6-((R)-5-{[1-(6-Methoxy-[1,5]naphthyridin-4-yl)-azetidin-3-ylamino]-methyl}-2-oxo-oxazolidin-3-yl)-4H-benzo[1,4]thiazin-3-one]	≤ 0.031
COc1ccc2nccc(N3CCN(C[C@H]4CN(c5cccc(F)c5)C(=O)O4)CC3)c2n1 [Example 40, (S)-3-(3-Fluoro-phenyl)-5-[4-(6-methoxy-[1,5]naphthyridin-4-yl)-piperazin-1-ylmethyl]-oxazolidin-2-one]	0.125 (≈ 0.286 µM)
N#Cc1ccc2nccc(N3CCC(NC[C@@H]4CN(c5ccc6c(c5)NC(=O)CS6)C(=O)O4)CC3)c2c1 [Example 180, 4-(4-{[(R)-2-oxo-3-(3-oxo-3,4-dihydro-2H-benzo[1,4]thiazin-6-yl)-oxazolidin-5-ylmethyl]-amino}-piperidin-1-yl)-quinoline-6-carbonitrile]	≤ 0.031
COc1ccc2nccc(N3CC[C@@H](NC[C@@H]4CN(c5ccc6c(c5)OCCO6)C(=O)O4)C3)c2n1 [Example 42, (R)-3-(2,3-Dihydro-benzo[1,4]dioxin-6-yl)-5-{[(R)-1-(6-methoxy-[1,5]naphthyridin-4-yl)-pyrrolidin-3-ylamino]-methyl}-oxazolidin-2-one]	≤ 0.031
COc1ccc2nccc(N3CCC(CN(C)C[C@@H]4CN(c5ccc6c(c5)NC(=O)CS6)C(=O)O4)C3)c2n1 (mixture of isomers) [Example 117, 6-[(R)-5-({[(RS)-1-(6-Methoxy-[1,5]naphthyridin-4-yl)-pyrrolidin-3-ylmethyl]-methyl-amino}-methyl)-2-oxo-oxazolidin-3-yl]-4H-benzo[1,4]thiazin-3-one]	≤ 0.031
COc1ccc2nccc(N3C[C@@H](NC[C@@H]4CN(c5ccc6c(c5)NC(=O)CS6)C(=O)O4)[C@H](C(=O)O)C3)c2n1 (relative stereo) [Example 74, (3R*,4S*)-1-(6-Methoxy-[1,5]naphthyridin-4-yl)-4-{[(R)-2-oxo-3-(3-oxo-3,4-dihydro-2H-benzo[1,4]thiazin-6-yl)-oxazolidin-5-ylmethyl]-amino}-pyrrolidine-3-carboxylic acid]	0.5 (≈ 0.908 µM)
N#Cc1ccc2nccc(N3CC(NC[C@@H]4CN(c5ccc6c(c5)NC(=O)CS6)C(=O)O4)C3)c2c1 [Example 161, 4-(3-{[(R)-2-oxo-3-(3-oxo-3,4-dihydro-2H-benzo[1,4]thiazin-6-yl)-oxazolidin-5-ylmethyl]amino}-azetidin-1-yl)-quinoline-6-carbonitrile]	≤ 0.031
COc1ccc2nccc(N3C[C@@H](NC[C@@H]4CN(c5ccc6c(c5)NC(=O)CS6)C(=O)O4)[C@H](OC)C3)c2n1 (relative stereo) [Example 75, 6-((R)-5-{[(3R*,4R*)-4-Methoxy-1-(6-methoxy-[1,5]naphthyridin-4-yl)-pyrrolidin-3-ylamino]-methyl}-2-oxo-oxazolidin-3-yl)-4H-benzo[1,4]thiazin-3-one]	≤ 0.031
COc1ccc2nccc(N3CCC(CNC(=O)[C@@H]4CN(c5ccc6c(c5)OCCO6)C(=O)O4)C3)c2n1 (mixture of isomers) [Example 81, (S)-3-(2,3-Dihydro-benzo[1,4]dioxin-6-yl)-2-oxo-oxazolidine-5-carboxylic acid [(RS)-1-(6-methoxy-[1,5]naphthyridin-4-yl)-pyrrolidin-3-ylmethyl]-amide]	0.125

Other lines, results leading:

MIC [µg/mL]	Structure (SMILES)
≤ 0.031	COc1ccc2nccc(N3CC[C@H](NC[C@@H]4CN(c5ccc6c(c5)NC(=O)CS6)C(=O)O4)C3)c2n1 [Example 70, 6-((R)-5-{[(S)-1-(6-Methoxy-[1,5]naphthyridin-4-yl)-pyrrolidin-3-ylamino]-methyl}-2-oxo-oxazolidin-3-yl)-4H-benzo[1,4]thiazin-3-one]
≤ 0.031	CCc1ccc(N2C[C@@H](CN(C)C3CN(c4ccnc5ccc(OC)nc45)C3)OC2=O)cc1 [Example 137, (R)-3-(4-Ethyl-phenyl)-5-({[1-(6-methoxy-[1,5]naphthyridin-4-yl)-azetidin-3-yl]-methyl-amino}-methyl)-oxazolidin-2-one]
≤ 0.031	COc1ccc2ncnc(N3CCN(CC4CN(c5ccc6c(c5)NC(=O)CS6)C(=O)O4)CC3)c2c1 (racemic) [Example 7, (RS)-6-{5-[4-(6-Methoxy-quinazolin-4-yl)-piperazin-1-ylmethyl]-2-oxo-oxazolidin-3-yl}-4H-benzo[1,4]thiazin-3-one]
≤ 0.031	COc1ccc2ncc(F)c(N3CCC(NC[C@@H]4CN(c5ccc6c(c5)NC(=O)CO6)C(=O)O4)CC3)c2n1 [Example 123, 6-((R)-5-{[1-(3-Fluoro-6-methoxy-[1,5]naphthyridin-4-yl)-piperidin-4-ylamino]-methyl}-2-oxo-oxazolidin-3-yl)-4H-benzo[1,4]oxazin-3-one]
≤ 0.031	COc1ccc2nccc(N3CCN(C[C@@H]4CN(c5ccc6ncsc6c5)C(=O)O4)CC3)c2n1 [Example 19, (R)-3-Benzothiazol-6-yl-5-[4-(6-methoxy-[1,5]naphthyridin-4-yl)-piperazin-1-ylmethyl]-oxazolidin-2-one]
0.063 (≈ 0.132 µM)	COc1ccc2nccc(N3CC(N(C)C[C@@H]4CN(c5ccc6scnc6c5)C(=O)O4)C3)c2n1 [Example 146, (R)-3-Benzothiazol-5-yl-5-({[1-(6-methoxy-[1,5]naphthyridin-4-yl)-azetidin-3-yl]-methyl-amino}-methyl)-oxazolidin-2-one]
0.063 (≈ 0.132 µM)	COc1ccc2nccc(N3CC(N(C)C[C@@H]4CN(c5ccc6ncsc6c5)C(=O)O4)C3)c2n1 [Example 144, (R)-3-Benzothiazol-6-yl-5-({[1-(6-methoxy-[1,5]naphthyridin-4-yl)-azetidin-3-yl]-methyl-amino}-methyl)-oxazolidin-2-one]
≤ 0.031	COc1ccc2nccc(N3CCN(C[C@@H]4CN(c5ccc(C)c(C(F)(F)F)c5)C(=O)O4)CC3)c2n1 [Example 18, (R)-5-[4-(6-Methoxy-[1,5]naphthyridin-4-yl)-piperazin-1-ylmethyl]-3-(4-methyl-3-trifluoromethyl-phenyl)-oxazolidin-2-one]
0.25 (≈ 0.556 µM)	COc1cccc(N2C[C@@H](CN3CCN(c4ccnc5ccc(OC)nc45)CC3)OC2=O)c1 [Example 24, (R)-5-[4-(6-Methoxy-[1,5]naphthyridin-4-yl)-piperazin-1-ylmethyl]-3-(3-methoxy-phenyl)-oxazolidin-2-one]
